Reference: article PMC8151276, “An Integrated Approach toward NanoBRET Tracers for Analysis of GPCR Ligand Engagement” (Molecules, 2021)

Legend:
Assay type in all cases: binding
DRD5 = target: T1, DRD5 (Homo sapiens, UniProt P21918); experiment: NanoBRET screen HiBiT-DRD5 in HEK293
T1 construct: purchased Promega (in-house HiBiT-GPCR construct library, NanoBRET)
Protocol: (§1) Each tracer candidate was screened across the entire library of HiBiT-GPCR constructs using NanoBRET as the detection modality. As depicted in Figure 4A, the specificity of interactions was evaluated through decrease in BRET due to competitive displacement of a bound tracer by excess parental compound. Each tracer was analyzed for binding to each HiBiT-GPCR fusion in the absence and in the presence of competing parental compound. Briefly, HEK293 cells were transfected with HiBiT-GPCR constructs diluted into promoterless DNA to reduce expression and maximize translocation to the cell surface. Each tracer candidate was then screened at concentrations of 1 μM and 0.1 μM across cells expressing these fusions. Cells were treated for 1.5 h with tracer either alone or in the presence of 20 μM competing parental compound (i.e., control). BRET was measured upon addition of purified LgBiT and subsequent complementation with HiBiT genetically fused to a GPCR. The specificity of interactions was assessed through a decrease in BRET signal due to competitive displacement of the bound tracer. To further gauge the robustness of these interactions, the fold response over the control (i.e., BRETtracer/BRETcontrol) was calculated. We chose a 1.5-fold response, which translates to ≥7-fold signal over noise as the minimal threshold required to score an interaction as positive. […]. Below we highlight the screening results obtained for our exemplary fluorescent tracers based on Clozapine, Amitriptyline and AZD1283.
(§2) HiBiT-GPCR DNA constructs were diluted in 10 mM Tris pH 8 to a final concentration of 0.01 μg/μL, arrayed in 96-well plates and stored at −20 °C. For transfection, HEK293 cells were suspended in Opti-MEM (without phenol red) supplemented with 2% fetal bovine serum (Seradigm) and 100 units/mL penicillin–streptomycin (Gibco) at a final concentration of 220,000 cells/mL and dispensed into white 96-well plates at 90 μL/well. Subsequent transfections and screens were carried using an Agilent Bravo Automated Liquid Handling Platform. First, the 96-well HiBiT DNA arrays were diluted 25-fold in Opti-MEM (without serum or phenol red) to a final concentration of 0.0004 μg/μL and 20 μL of the diluted DNAs were transferred into new 96-well plates. Next, promoterless carrier DNA (1 μg/μL) was diluted 25-fold (0.04 μg/μL) and then dispensed into the diluted arrays at 20 μL/well. Following brief mixing, Viafect transfection reagent (Promega) diluted 16-fold into Opti-MEM was dispensed into the plates at 40 μL/well. After mixing by pipetting, plates were incubated for 10 min on the pipetting station deck. The DNA-transfection reagent complexes were then added to plates containing cells. To facilitate the screen, 10 μL of DNA-transfection reagent complexes were added in duplicates to the top 4 and bottom 4 rows, resulting in two identical 48-well arrays per plate. Plates with transfected cells were incubated for 18–20 h at 37 °C/5% CO2. A screen of each tracer across the entire library using two different concentrations requires duplicate plates of transfected cells. Depending on the number of tracers being screened, transfections can be scaled up using the same ratios. The next day, for each tracer, four 20× screening solutions in tracer dilution buffer (Promega) were prepared: two duplicates at final concentration of 20 μM and two duplicates at a final concentration of 2 μM. A competing unmodified compound was added to one of each duplicate at a final concentration of 400 μM. The four resulting solutions were diluted 4-fold in Opti-MEM without serum or phenol red to generate 5× solutions (5 µM and 0.5 µM tracer +/− 100 μM competing compound). To screen the library, a BioTek MultiFlo FX liquid dispenser was used to dispense 22.5 µL of tracer solution to the top 4 rows and 22.5 µL tracer + competing compound solution to the 4 bottom rows. Plates were briefly mixed on an orbital shaker and incubated for 1.5 h at room temperature. […]

HTR1D = target: T2, HTR1D (Homo sapiens, UniProt P28221); experiment: NanoBRET screen HiBiT-HTR1D in HEK293
T2 construct: purchased Promega (in-house HiBiT-GPCR construct library, NanoBRET)
T2 sequence (P28221 whole entry): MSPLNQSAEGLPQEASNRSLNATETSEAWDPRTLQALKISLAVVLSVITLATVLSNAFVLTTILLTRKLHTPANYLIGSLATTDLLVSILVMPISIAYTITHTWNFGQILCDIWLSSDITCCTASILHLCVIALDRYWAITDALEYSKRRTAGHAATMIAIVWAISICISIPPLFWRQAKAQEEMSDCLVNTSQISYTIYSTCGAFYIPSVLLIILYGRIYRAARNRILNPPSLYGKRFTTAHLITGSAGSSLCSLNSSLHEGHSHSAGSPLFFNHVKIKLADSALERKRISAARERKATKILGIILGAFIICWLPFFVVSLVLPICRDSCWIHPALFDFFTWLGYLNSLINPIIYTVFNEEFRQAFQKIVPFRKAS
Protocol: as §1, §2

TACR3 = target: T3, TACR3 (Homo sapiens, UniProt P29371); experiment: NanoBRET screen HiBiT-TACR3 in HEK293
T3 construct: purchased Promega (in-house HiBiT-GPCR construct library, NanoBRET)
T3 sequence (P29371 1-465): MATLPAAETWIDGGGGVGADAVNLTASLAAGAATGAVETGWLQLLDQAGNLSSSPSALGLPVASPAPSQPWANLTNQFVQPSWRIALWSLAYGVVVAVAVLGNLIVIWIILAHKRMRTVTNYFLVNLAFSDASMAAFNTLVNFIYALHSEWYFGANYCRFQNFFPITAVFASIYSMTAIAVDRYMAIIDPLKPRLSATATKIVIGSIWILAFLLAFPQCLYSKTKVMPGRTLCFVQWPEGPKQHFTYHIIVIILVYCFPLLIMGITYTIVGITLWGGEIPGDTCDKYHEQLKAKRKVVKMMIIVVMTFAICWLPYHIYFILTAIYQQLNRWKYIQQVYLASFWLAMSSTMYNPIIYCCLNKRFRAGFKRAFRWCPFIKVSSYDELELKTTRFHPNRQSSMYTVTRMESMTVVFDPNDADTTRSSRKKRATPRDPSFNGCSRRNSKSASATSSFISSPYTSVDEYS
Protocol: as §1, §2

FZD1 = target: T4, FZD1 (Homo sapiens, UniProt Q9UP38); experiment: NanoBRET screen HiBiT-FZD1 in HEK293
T4 construct: purchased Promega (in-house HiBiT-GPCR construct library, NanoBRET)
T4 sequence (Q9UP38 70-647): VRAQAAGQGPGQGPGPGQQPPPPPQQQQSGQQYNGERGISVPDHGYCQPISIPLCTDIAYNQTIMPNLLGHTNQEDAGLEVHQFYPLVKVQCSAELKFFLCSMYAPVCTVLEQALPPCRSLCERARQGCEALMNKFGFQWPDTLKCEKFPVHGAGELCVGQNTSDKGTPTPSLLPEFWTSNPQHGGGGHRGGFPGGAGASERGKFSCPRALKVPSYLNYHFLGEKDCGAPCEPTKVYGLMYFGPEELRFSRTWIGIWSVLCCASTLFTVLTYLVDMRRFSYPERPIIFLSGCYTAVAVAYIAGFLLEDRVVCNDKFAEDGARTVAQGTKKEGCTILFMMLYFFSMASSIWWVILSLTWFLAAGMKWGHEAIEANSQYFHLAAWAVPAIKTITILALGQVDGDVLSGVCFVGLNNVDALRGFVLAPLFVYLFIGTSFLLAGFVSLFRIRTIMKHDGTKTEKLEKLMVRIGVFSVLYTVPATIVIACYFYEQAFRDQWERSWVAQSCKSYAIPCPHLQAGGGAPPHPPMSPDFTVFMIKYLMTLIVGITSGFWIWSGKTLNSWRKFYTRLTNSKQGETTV
Protocol: as §1, §2

CXCR1 = target: T5, CXCR1 (Homo sapiens, UniProt P25024); experiment: NanoBRET screen HiBiT-CXCR1 in HEK293
T5 construct: purchased Promega (in-house HiBiT-GPCR construct library, NanoBRET)
T5 sequence (P25024 1-350): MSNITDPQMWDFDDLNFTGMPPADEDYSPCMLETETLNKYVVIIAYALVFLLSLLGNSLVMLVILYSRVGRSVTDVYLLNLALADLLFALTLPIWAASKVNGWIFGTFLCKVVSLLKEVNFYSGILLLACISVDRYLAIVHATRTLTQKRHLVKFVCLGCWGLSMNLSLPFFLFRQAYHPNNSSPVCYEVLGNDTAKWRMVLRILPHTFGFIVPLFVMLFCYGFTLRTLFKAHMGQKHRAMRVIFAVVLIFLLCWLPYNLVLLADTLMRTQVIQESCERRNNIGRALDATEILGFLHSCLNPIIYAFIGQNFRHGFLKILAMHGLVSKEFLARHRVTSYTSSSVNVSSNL
Protocol: as §1, §2

[1] = tracer at 0.1μM, listed as amitriptyline-b-2-NB590
[2] = tracer at 1μM, listed as amitriptyline-b-2-NB590

T1 sequence (P21918 whole entry): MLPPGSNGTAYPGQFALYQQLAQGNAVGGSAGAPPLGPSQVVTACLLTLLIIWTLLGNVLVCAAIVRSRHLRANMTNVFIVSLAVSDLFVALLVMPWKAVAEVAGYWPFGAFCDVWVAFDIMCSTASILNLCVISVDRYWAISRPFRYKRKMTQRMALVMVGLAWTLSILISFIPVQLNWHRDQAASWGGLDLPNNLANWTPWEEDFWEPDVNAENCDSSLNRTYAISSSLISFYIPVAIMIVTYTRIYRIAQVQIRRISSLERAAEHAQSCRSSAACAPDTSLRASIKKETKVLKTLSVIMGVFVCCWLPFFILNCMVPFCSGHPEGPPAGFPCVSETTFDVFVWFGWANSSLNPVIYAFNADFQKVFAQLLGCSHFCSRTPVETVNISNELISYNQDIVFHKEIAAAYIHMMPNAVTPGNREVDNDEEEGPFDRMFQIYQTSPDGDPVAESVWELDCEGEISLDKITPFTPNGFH

Compound: CCOC(=O)c1cc(C#N)c(N2CCC(C(=O)NS(=O)(=O)Cc3ccccc3/C=C/C(=O)NCCNC(=O)CCc3ccc4n3[B-](F)(F)[N+]3=C(c5ccc[nH]5)C=CC3=C4)CC2)nc1C [AZD1283-1-NB590]
- NanoBRET Fold Response (DRD5; DRD5, 0.1μM): 1.02
- NanoBRET Fold Response (DRD5; DRD5, 1μM): 1.13
- NanoBRET Fold Response (HTR1D; HTR1D, 0.1μM): 0.90
- NanoBRET Fold Response (HTR1D; HTR1D, 1μM): 0.88
- NanoBRET Fold Response (TACR3; TACR3, 0.1μM): 1.10
- NanoBRET Fold Response (TACR3; TACR3, 1μM): 1.10
- NanoBRET Fold Response (FZD1; FZD1, 0.1μM): 1.06
- NanoBRET Fold Response (FZD1; FZD1, 1μM): 1.07
- NanoBRET Fold Response (CXCR1; CXCR1, 0.1μM): 1.09
- NanoBRET Fold Response (CXCR1; CXCR1, 1μM): 1.13

Compound: N#CN/C(=N\CCNC(=O)c1ccc(N)cc1)NCCCOc1cccc(CN2CCCCC2)c1 [Aminopotentidine (unmodified)]
- NanoBRET Fold Response (DRD5; DRD5, other tracers/Aminopotentidine (unmodified), 0.1μM): 1.08
- NanoBRET Fold Response (DRD5; DRD5, other tracers/Aminopotentidine (unmodified), 1μM): 1.09
- NanoBRET Fold Response (HTR1D; HTR1D, other tracers/Aminopotentidine (unmodified), 0.1μM): 1.06
- NanoBRET Fold Response (HTR1D; HTR1D, other tracers/Aminopotentidine (unmodified), 1μM): 1.50

Compound: N#CN=C(NCCCOc1cccc(CN2CCCCC2)c1)NCCNC(=O)CCOCCOCCOCCOCCNC(=O)CCc1ccc2n1[B-](F)(F)[N+]1=C(c3ccc[nH]3)C=CC1=C2 [Aminopotentidine-2-NB590]
- NanoBRET Fold Response (DRD5; DRD5, tracer 0.1μM): 1.02
- NanoBRET Fold Response (DRD5; DRD5, tracer 1μM): 1.01
- NanoBRET Fold Response (HTR1D; HTR1D, tracer 0.1μM): 1.40
- NanoBRET Fold Response (HTR1D; HTR1D, tracer 1μM): 1.21
- NanoBRET Fold Response (TACR3; TACR3, tracer 0.1μM): 1.06
- NanoBRET Fold Response (TACR3; TACR3, tracer 1μM): 1.06
- NanoBRET Fold Response (FZD1; FZD1, tracer 0.1μM): 1.07
- NanoBRET Fold Response (FZD1; FZD1, tracer 1μM): 1.12
- NanoBRET Fold Response (CXCR1; CXCR1, tracer 0.1μM): 1.03
- NanoBRET Fold Response (CXCR1; CXCR1, tracer 1μM): 0.99

Compound: CN(C)CCC=C1c2ccccc2CCc2ccc(C(=O)NCCNC(=O)CCOCCOCCOCCOCCNC(=O)CCc3ccc4n3[B-](F)(F)[N+]3=C(c5ccc[nH]5)C=CC3=C4)cc21 [Amitriptyline-a-2-NB590]
- NanoBRET Fold Response (DRD5; tracer at 0.1μM): 1.11
- NanoBRET Fold Response (DRD5; tracer at 1μM): 1.12
- NanoBRET Fold Response (HTR1D; tracer at 0.1μM): 1.09
- NanoBRET Fold Response (HTR1D; tracer at 1μM): 1.09
- NanoBRET Fold Response (TACR3; tracer at 1μM): 1.03
- NanoBRET Fold Response (FZD1; tracer at 0.1μM): 0.92
- NanoBRET Fold Response (FZD1; tracer at 1μM): 0.98
- NanoBRET Fold Response (CXCR1; tracer at 0.1μM): 1.05
- NanoBRET Fold Response (CXCR1; tracer at 1μM): 0.97

Compound: CN(C)CCC=C1c2ccccc2CCc2ccc(C(=O)NCCNC(=O)CCOCCOCCOCCOCCNC(=O)CCc3ccc4n3[B-](F)(F)[N+]3=C(c5ccc[nH]5)C=CC3=C4)cc21 [Amitriptyline-b-2-NB590]
- NanoBRET Fold Response (DRD5; [1]): 1.08
- NanoBRET Fold Response (DRD5; [2]): 1.42
- NanoBRET Fold Response (HTR1D; [1]): 1.43
- NanoBRET Fold Response (HTR1D; [2]): 0.74
- NanoBRET Fold Response (TACR3; [2]): 0.97
- NanoBRET Fold Response (FZD1; [1]): 0.97
- NanoBRET Fold Response (FZD1; [2]): 1.14
- NanoBRET Fold Response (CXCR1; tracer at 0.1μM): 0.97
- NanoBRET Fold Response (CXCR1; [2]): 1.11
